Source: PubChem BioAssay (NCI)
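Briefly, cells in 96-well plates were exposed to five compound concentrations for 48 h, and endpoints were estimated by linear interpolation. At the TGI there is no net growth.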

What was measured:
Assay in all cases: NCI anticancer screen, dose series, 48 h
ACHN renal = test system: ACHN renal
DMS 273 small cell lung = test system: DMS 273 small cell lung
K-562 leukemia = test system: K-562 leukemia
MALME-3M melanoma = test system: MALME-3M melanoma
LXFL 529 NSCLC = test system: LXFL 529 NSCLC
SF-539 CNS = test system: SF-539 CNS
U251 CNS = test system: U251 CNS
SNB-78 CNS = test system: SNB-78 CNS
NCI-H522 lung = test system: NCI-H522 lung
SNB-19 CNS = test system: SNB-19 CNS
NCI-H460 lung = test system: NCI-H460 lung
SK-MEL-28 melanoma = test system: SK-MEL-28 melanoma
SK-OV-3 ovarian = test system: SK-OV-3 ovarian
KM20L2 colon = test system: KM20L2 colon
RXF 393 renal = test system: RXF 393 renal
COLO 205 colon = test system: COLO 205 colon
KM12 colon = test system: KM12 colon
HOP-18 NSCLC = test system: HOP-18 NSCLC
HOP-92 NSCLC = test system: HOP-92 NSCLC
M14 melanoma = test system: M14 melanoma
HL-60(TB) leukemia = test system: HL-60(TB) leukemia
SN12C renal = test system: SN12C renal
DLD-1 colon = test system: DLD-1 colon
M19-MEL melanoma = test system: M19-MEL melanoma
SNB-75 CNS = test system: SNB-75 CNS
SF-268 CNS = test system: SF-268 CNS
UACC-62 melanoma = test system: UACC-62 melanoma
IGROV1 ovarian = test system: IGROV1 ovarian
786-0 renal = test system: 786-0 renal
LOX IMVI melanoma = test system: LOX IMVI melanoma
HOP-62 NSCLC = test system: HOP-62 NSCLC
EKVX NSCLC = test system: EKVX NSCLC
OVCAR-8 ovarian = test system: OVCAR-8 ovarian
OVCAR-3 ovarian = test system: OVCAR-3 ovarian
OVCAR-5 ovarian = test system: OVCAR-5 ovarian
HCT-116 colon = test system: HCT-116 colon
UACC-257 melanoma = test system: UACC-257 melanoma
A498 renal = test system: A498 renal
HCC-2998 colon = test system: HCC-2998 colon
RXF-631 renal = test system: RXF-631 renal
HCT-15 colon = test system: HCT-15 colon
RPMI-8226 leukemia = test system: RPMI-8226 leukemia
SK-MEL-2 melanoma = test system: SK-MEL-2 melanoma
UO-31 renal = test system: UO-31 renal
SF-295 CNS = test system: SF-295 CNS
DMS 114 small cell lung = test system: DMS 114 small cell lung
SR leukemia = test system: SR leukemia
OVCAR-4 ovarian = test system: OVCAR-4 ovarian
SW-620 colon = test system: SW-620 colon
TK-10 renal = test system: TK-10 renal
HT29 colon = test system: HT29 colon
NCI-H23 lung = test system: NCI-H23 lung
SK-MEL-5 melanoma = test system: SK-MEL-5 melanoma
A549 NSCLC = test system: A549 NSCLC

Measured: TGI

CSc1nc(NC2OC(COC(C)=O)C(OC(C)=O)C(OC(C)=O)C2OC(C)=O)c(N=CC=Nc2c(NC3OC(COC(C)=O)C(OC(C)=O)C(OC(C)=O)C3OC(C)=O)nc(SC)[nH]c2=O)c(=O)[nH]1 (centres undefined)
> 100 µM: ACHN renal | DMS 273 small cell lung | K-562 leukemia | MALME-3M melanoma | LXFL 529 NSCLC | SF-539 CNS | U251 CNS | SNB-78 CNS | NCI-H522 lung | SNB-19 CNS | NCI-H460 lung | SK-MEL-28 melanoma | SK-OV-3 ovarian | KM20L2 colon | RXF 393 renal | COLO 205 colon | KM12 colon | HOP-18 NSCLC | HOP-92 NSCLC | M14 melanoma | HL-60(TB) leukemia | SN12C renal | DLD-1 colon | M19-MEL melanoma | SNB-75 CNS | SF-268 CNS | UACC-62 melanoma | IGROV1 ovarian | 786-0 renal | LOX IMVI melanoma | HOP-62 NSCLC | EKVX NSCLC | OVCAR-8 ovarian | OVCAR-3 ovarian | OVCAR-5 ovarian | HCT-116 colon | UACC-257 melanoma | A498 renal | HCC-2998 colon | RXF-631 renal | HCT-15 colon | RPMI-8226 leukemia | SK-MEL-2 melanoma | UO-31 renal | SF-295 CNS | DMS 114 small cell lung | SR leukemia | OVCAR-4 ovarian | SW-620 colon | TK-10 renal | HT29 colon | NCI-H23 lung | SK-MEL-5 melanoma | A549 NSCLC
